The text below walks through data of PMC6274376, “Naturally Inspired Molecules as Multifunctional Agents for Alzheimer’s Disease Treatment” (Molecules, 2016).

Values joined by “and” are separate entries in the source; they are usually repeats but may differ in a detail not shown here. Equal values may be shown once. Where a name gives a salt, the structure may show the parent alone.

Data set [1] has as its target hBACE-1 (Homo sapiens, UniProt P56817). Put plainly: BACE-1 FRET inhibition assay. The format is biochemical. As to conditions: for inhibition at 5 µM: tested at 5 µM concentration; for IC50: FRET assay, average of multiple experiments each in triplicate, ± SEM. The protocol: The new benzophenone-based hybrids 3–7 presented in this study were first evaluated for their in vitro ability to inhibit the enzymatic activity of BACE-1, by means of a biochemical assay performed using the fluorescence resonance energy transfer (FRET) methodology and in comparison to inhibitor IV [22] as reference compound (Table 1). For the most interesting compounds 3–5, endowed with the orto-hydroxycarbonyl substitution pattern, the neuroprotective potential was determined as lack of toxic effects on neuronal cell viability and as Cu(II) chelating activity (Table 2); moreover, their direct interactions with Cu(II) ion were confirmed by a UV-vis spectrophotometric study.
Inhibition studies were performed using the following procedure: 5 μL of test compound (or DMSO) were pre-incubated with 175 μL of enzyme (10.37 nM, final concentration) in 20 mM NaOAc pH 4.5 containing CHAPS (0.1% w/v) for 1 h at r.t.; M-2420 (3 μM, final concentration) was then added and left to react for 15 min. The fluorescence signal was read at λem = 405 nm (λexc = 320 nm). DMSO concentration in the final mixture was maintained below 5% (v/v) to guarantee no significant loss of enzyme activity.Fluorescence intensities with and without inhibitor were compared and the percent inhibition due to the presence of test compounds was calculated. The background signal was measured in control wells containing all the reagents, except theenzymeand subtracted. The % inhibition due to the presence of increasing test compound concentration was calculated by the following expression: 100 − (IFi/IFo × 100) where IFi and IFo are the fluorescence intensities obtained for the enzyme in the presence and in the absence of inhibitor, respectively. Inhibition curves were obtained for each compound by plotting the % inhibition versus the logarithm of inhibitor concentration in the assay sample. The linear regression parameters were determined and the IC50 extrapolated (GraphPad Prism 4.0, GraphPad Software Inc., San Diego, CA, USA).

The target of data set [2] is CatD (Homo sapiens, UniProt P07339). Put plainly: CatD inhibition. Particulars: up to 0.5 μM. The format is biochemical.
Data set [3] has as its system SH-SY5Y cells. Put plainly: Neurotoxicity, MTT cell viability assay. The format is cell-based, human. Particulars: for IC50: Homo sapiens, SH-SY5Y cells, 24 h treatment, 1.25–40 µM, MTT, mean ± SD. The protocol:
Cytotoxic effects in several in vitro or in vivo models have been reported for some chalcones. Therefore, to discriminate the neurotoxic concentrations of the conjugates 3–5 we evaluated the cell viability of human neuronal SH-SY5Y cells after 24 h treatment with these conjugate at different concentrations (1.25–40 μM) using the MTT assay. […] Thus, the presence of an α,β-unsatured carbonyl fragment seems to positively influence the degree of neuronal toxicity, leading to molecules endowed with a favorable SI.
Human neuronal (SH-SY5Y) cells were routinely grown in Dulbecco’s modified Eagle’ Medium (DMEM) supplemented with 10% fetal bovine serum, 2 mmol/L-glutamine, 50 U·mL^−1penicillin and 50 μg·mL^−1streptomycin at 37 °C in a humidified incubator with 5% CO2.
To evaluate the neurotoxicity of compounds, the SH-SY5Y cells were seeded in 96-well plates at 2 × 10^4 cells/well, incubated for 24 h and subsequently treated with various concentrations of compounds (1.25–40 µM) for 24 h at 37 °C in 5% CO2;. The cell viability in terms of mitochondrial metabolic function was evaluated by the reduction in 3-(4,5-dimethyl-2-thiazolyl)-2,5-diphenyl-2H-tetrazolium bromide (MTT) to formazan as previously described. The quantity of formazan was directly proportional to the number of viable cells. Briefly, the treatment medium was replaced with MTT (5 mg/mL) in phosphate-buffered saline (PBS) for 2 h at 37 °C in 5% CO2. After washing with PBS, the formazan crystals were dissolved with isopropanol. The amount of formazan was measured (570 nm, reference filter 690 nm) using a multilabel plate reader (VICTOR™ X3, PerkinElmer, Waltham, MA, USA). The neurotoxicity is expressed as concentration of compound resulting in 50% inhibition of cell viability.
On the technique in general: Formazan colour is commonly taken as a measure of viable cells.

The nature of data set [4]: Cu(II) chelating assay (bathocuproinedisulfonic acid disodium salt, BCS). The format is physicochemical. The protocol: Data were expressed as chelating activity percentage (Table 2).
The Cu(II) chelating activity of the compounds was determined using the bathocuproinedisulfonic acid disodium salt (BCS) assay as previously described. Briefly, 50 μL of a 0.25 mM CuSO4 solution were mixed for 2 min with 50 μL of 5–20 µM compound solution in 100 µL of HEPES buffer (15 mM). Hydroxylamine (1 mM) was added after 2 min in order to reduce non-chelated cupric ions into cuprous ones. Finally, 50 μL of BCS (5 mM) or water (blank) was added and the absorbance at 490 nm was measured by spectrophotometry using a multilabel plate reader (VICTOR™ X3, PerkinElmer, Waltham, MA, USA) immediately and at 5 min. Na2EDTA (5–20 µM) was used as a positive control. The ability of the test compounds to chelate cupric ions was calculated using the following equation: chelating activity (%) = [1 − (Abs BCS + compound/Abs BCS) × 100].

A short description of data set [5]: UV-vis spectrophotometric evaluation of Cu(II) ion complexation. The format is physicochemical. The text has this:
Chalcone conjugates 4 and 5 were investigated to evaluate their ability to complex Cu(II) ions via a UV-vis spectrophotometric study.
Therefore, we decided to carry on the spectrophotometric measurements in a mixed solvent: aqueous MOPS aqueous buffer […] pH 7.4 /DMF in 1:4 ratio, respectively. Flavonoids bearing the 4-carbonyl-5-hydroxyl chelation site have characteristic UV-vis spectra, characterized by a wide and non-structured band centred around 370–380 nm, with a molar extinction coefficient of 50,000 cm^−1·M^−1 that is attributed to HOMO-LUMO transition with a π-π* character.
All reagents and solvents were used as received (from Aldrich, St. Louis, MO, USA) without further purification: copper(II) sulphate hydrate (≥98%), 3-(N-Morpholino)propanesulfonic acid (MOPS, ≥99.5%), sodium hydroxide (≥98%), N,N-dimethylformamide (spectroscopic grade, DMF). A Milli-Q system (Millipore, Billerica, MA, USA) was used for the purification of water (resistivity ≥18.2 MΩ). MOPS bufferstock solution were obtained by a dissolution in Milli-Q water of 3-(N-morpholino)propane sulphonic acid to a final concentration of 10^−3 M. The pH was corrected with a solution of sodium hydroxide 1 N to a value of pH 7.4. Absorption spectra were recorded on a Perkin-Elmer Lambda 45 spectrophotometer at room temperature. Spectrophotometric titrations were performed as follows: stock solutions of ligands (ca. 10^−3 M) were prepared in DMF, diluted down to the desired concentration, in the quartz cuvette, in MOPS buffer 10^−3 M pH 7.4/DMF (1:4) to a final volume of 2.5 mL and then titrated by adding increasing amounts of Cu(II) (3.04 × 10^−3 Min DMF).

The mark [6] stands for this setting: 5 µM compound, fixed 40 µM CuSO4.
[7] abbreviates: 10 µM compound, fixed 40 µM CuSO4.
Setting [8] is: 20 µM compound, fixed 40 µM CuSO4, mean ± SD.

Sequence of hBACE-1 (P56817 46-501): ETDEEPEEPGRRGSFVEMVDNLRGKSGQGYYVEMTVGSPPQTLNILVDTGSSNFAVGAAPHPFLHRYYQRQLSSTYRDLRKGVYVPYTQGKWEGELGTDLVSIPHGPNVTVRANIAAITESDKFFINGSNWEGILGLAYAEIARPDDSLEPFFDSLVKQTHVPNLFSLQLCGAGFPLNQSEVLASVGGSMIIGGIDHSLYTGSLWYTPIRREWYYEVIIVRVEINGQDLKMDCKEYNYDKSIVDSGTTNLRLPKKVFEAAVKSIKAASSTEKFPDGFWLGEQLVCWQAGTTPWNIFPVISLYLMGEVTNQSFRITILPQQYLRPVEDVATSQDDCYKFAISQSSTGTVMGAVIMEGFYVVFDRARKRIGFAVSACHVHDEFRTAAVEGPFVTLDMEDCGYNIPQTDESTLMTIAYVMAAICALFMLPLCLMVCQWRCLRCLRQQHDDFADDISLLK
Sequence of CatD (P07339 65-412): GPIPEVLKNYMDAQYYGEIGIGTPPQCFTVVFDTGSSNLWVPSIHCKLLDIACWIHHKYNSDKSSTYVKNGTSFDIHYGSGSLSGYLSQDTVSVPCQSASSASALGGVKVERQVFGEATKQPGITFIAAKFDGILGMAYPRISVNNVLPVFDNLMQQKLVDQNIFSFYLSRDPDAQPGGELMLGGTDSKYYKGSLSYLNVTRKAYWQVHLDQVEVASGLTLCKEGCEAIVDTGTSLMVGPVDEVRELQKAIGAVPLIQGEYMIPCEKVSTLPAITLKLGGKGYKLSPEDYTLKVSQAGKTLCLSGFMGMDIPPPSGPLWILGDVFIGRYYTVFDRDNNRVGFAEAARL

Regarding `CC(=O)c1ccc(OCCOc2ccc(C(=O)c3ccc(CN(C)Cc4ccccc4)cc3)cc2)cc1O` (as salt: HCl) [Compound 3, 1-{4-[2-(4-4-Benzylmethylaminomethylbenzoylphenoxy)ethoxy]-2-hydroxyphenyl}ethan-1-one], the melting point fell in the range of 264 to 268 °C.

`COc1cc(/C=C/C(=O)c2ccc(OCCOc3ccc(C(=O)c4ccc(CN(C)Cc5ccccc5)cc4)cc3)cc2O)cc(OC)c1OC` (as salt: HCl) [Compound 4, E-1-{4-[2-(4-4-Benzylmethylaminomethylbenzoylphenoxy)ethoxy]-2-hydroxyphenyl}-3-(3,4,5-trimethoxy-phenyl)prop-2-en-1-one] came in with a melting point of 220 to 222 °C.

As for `CN(Cc1ccccc1)Cc1ccc(C(=O)c2ccc(OCCOc3ccc(C(=O)/C=C/c4cccc5ccccc45)c(O)c3)cc2)cc1` (as salt: HCl) [Compound 5, E-1-{4-[2-(4-4-Benzylmethylaminomethylbenzoylphenoxy)ethoxy]-2-hydroxyphenyl}-3-(naphthalen-1-yl)-prop-2-en-1-one], the melting point lay within 197 to 199 °C.

As to `COc1cc(C2CC(=O)c3ccc(OCCOc4ccc(C(=O)c5ccc(CN(C)Cc6ccccc6)cc5)cc4)cc3O2)cc(OC)c1OC` (centres unmarked) (as salt: HCl) [Compound 6, 7-{2-[4-(4-Benzylmethylaminomethylbenzoyl)phenoxy]ethoxy}-2-(3,4,5-trimethoxyphenyl)chroman-4-one], the melting point lay within 182 to 194 °C.

`CN(Cc1ccccc1)Cc1ccc(C(=O)c2ccc(OCCOc3ccc4c(c3)OC(c3cccc5ccccc35)CC4=O)cc2)cc1` (centres unmarked) (as salt: HCl) [Compound 7]: the melting point is 172 to 195 °C.

As to `COc1ccc(C(=O)c2ccc(CN(C)Cc3ccccc3)cc2)cc1OC` [Compound 1], at 5 µM the inhibition in data set [1] was 20%. In addition, the CatD inhibition result in data set [2] is on record as “not inhib”.

For `COc1cc(/C=C/C(=O)c2ccc(OCCO)cc2O)cc(OC)c1OC` [Compound 2, (E)-1-[2-Hydroxy-4-(2-hydroxyethoxyphenyl)]-3-(3,4,5-trimethoxyphenyl)prop-2-en-1-one], the melting point fell in the range of 186 to 188 °C. In data set [1] (at 5.2 μM), this molecule gave an inhibition at 5.2 µM of 35.9%. This molecule also had an inhibition at 5 µM in data set [1] of 20%.

With `CC(=O)c1ccc(OCCOc2ccc(C(=O)c3ccc(CN(C)Cc4ccccc4)cc3)cc2)cc1O` [Compound 3, 1-{4-[2-(4-4-Benzylmethylaminomethylbenzoylphenoxy)ethoxy]-2-hydroxyphenyl}ethan-1-one], the IC50 in data set [1] came out at 3.18 ± 0.21 µM; in data set [3] it was 10.9 ± 1.63 µM. Moreover, the “Cu(II)-Chelating Activity” value in data set [4] (setting [6]) is 0.00%; in data set [4] (setting [7]), 3.49%; in data set [4] (setting [8]) it was 5.37% and 5.37 ± 0.16%.

With `COc1cc(/C=C/C(=O)c2ccc(OCCOc3ccc(C(=O)c4ccc(CN(C)Cc5ccccc5)cc4)cc3)cc2O)cc(OC)c1OC` [Compound 4, E-1-{4-[2-(4-4-Benzylmethylaminomethylbenzoylphenoxy)ethoxy]-2-hydroxyphenyl}-3-(3,4,5-trimethoxy-phenyl)prop-2-en-1-one], the values for the IC50 in data set [1] and in data set [3] were 1.06 ± 0.15 µM and 23.7 ± 3.54 µM, respectively. Further, in data set [5] (UV-vis spectra, MOPS buffer pH 7.4/DMF 1:4), the “ability to complex Cu(II) ions” value is listed as “able to chelate the selected ion”. Further, the “association constant (order of magnitude)” value in data set [5] (estimated from titration data, 1:1 complex stoichiometry with Cu(II), MOPS pH 7.4/DMF 1:4) is ~10^4. Also, the “selectivity index SI” value in data set [3] (neurotoxicity IC50 versus BACE-1 IC50) is “around 22”. Further, the “Cu(II)-Chelating Activity” value in data set [4] (setting [6]) is 7.16%; in data set [4] (setting [7]), 10.77%; in data set [4] (setting [8]), 15.07% and 15.07 ± 1.32%.

Molecule `COc1cc(C2CC(=O)c3ccc(OCCOc4ccc(C(=O)c5ccc(CN(C)Cc6ccccc6)cc5)cc4)cc3O2)cc(OC)c1OC` (centres unmarked) [Compound 6, 7-{2-[4-(4-Benzylmethylaminomethylbenzoyl)phenoxy]ethoxy}-2-(3,4,5-trimethoxyphenyl)chroman-4-one] showed a 50% inhibitory concentration (IC50) in data set [1] of 1.56 ± 0.23 µM.

With `CN(Cc1ccccc1)Cc1ccc(C(=O)c2ccc(OCCOc3ccc4c(c3)OC(c3cccc5ccccc35)CC4=O)cc2)cc1` (centres unmarked) [Compound 7], the half-maximal inhibitory concentration (IC50) in data set [1] came out at 3.97 ± 0.33 µM. This IC50 lies about 2.5-fold higher than the previous one.

With “disodium salt of ethylene diaminetetraacetic acid [Na2EDTA, reference compound]”, the “Cu(II)-Chelating Activity” value in data set [4] (setting [8]) stood at 17.10 ± 1.44%.

One may read the melting point as the temperature of the solid-liquid transition. As a reminder, the inhibition is the percentage by which the read-out fell short of the control. The term IC50 denotes the concentration that inhibits the measured activity by half.
